The values below come from paper PMC10499603, “Polθ is phosphorylated by PLK1 to repair double-strand breaks in mitosis” (Nature, 2023).

In data set [1] the test system is mitotic BRCA2^−/− cells. The data set is described as follows: γH2AX / DSB formation in mitotic cells. Format: cell-based, human. The following applies: Rucaparib 1 μM, 1 h in mitosis. As for the experimental part:
(§1) Cells grown on coverslips were fixed for 15 min in 2% paraformaldehyde, permeabilized for 10 min in 0.5% Triton X-100, blocked for 30 min in BSA 5%, 0.1% Triton X-100, immunostained for 1 h with primary antibodies, 45 min with secondary antibodies (Highly Cross-Adsorbed Secondary Antibodies Alexa Fluor, ThermoFisher Scientific) and mounted Vectashield mounting medium containing DAPI (Vector Laboratories). The same protocol was applied to mitotic cells, which were collected by shake off and centrifuged onto glass slides using a cytospin centrifuge (400g, 5 min) before fixation. […] Biotin azide-EdU click-it reaction was performed after fixation and permeabilization by incubating cells with a mix of Picolyl biotin, CuSO4, THPTA (Jena Bioscience) and sodium ascorbate in PBS for 30 min in the dark followed by an incubation with streptavidin conjugated Alex fluor 647 antibody (ThermoFisher Scientific) during 1 h at room temperature. Images were taken at 60× or 100× magnification using Upright Spinning disk Confocal Microscope (Roper/Zeiss) or at 40× magnification using DeltaVision (Deconvolution) Image Restoration Microscope. All images were taken with a Z-stack of 0.4 μM on 8 μM range around focus and projected using maximum intensity projection. Images were analysed using the Fiji software. All scale bars represent 5 μm unless stated otherwise.

A further data set concerns wild-type cells. Nature of the data set: Clonogenic survival, wild-type. It counts as cell-based, human. The following applies: Rucaparib 1 μM, 1 h in mitosis. As for the experimental part:
(§2) For mitotic cells: cells were blocked in G2 using RO3306 (5 μM), released, then blocked in mitosis by nocodazole and subsequently seeded for clonogenic survival. Polθ-mAID cells were blocked 4 h in RO3306 (5 μM) with or without IAA (500 μM) and released in nocodazole with or without IAA for 1 h. In the case of PARPi treatment, cells were blocked 16 h in RO3306 (5 μM) and released in nocodazole with or without Rucaparib (1 μM) for 1 h. After shake off, mitotic cells were washed twice with warm media, counted and seeded for clonogenic survival. For interphase cells: growing cells were treated with IAA (500 μM), or Rucaparib (1 μM) for indicated time, washed twice with warm media and counted. For clonogenic assay upon siRNA transfection, 150,000 cells were plated per well of a 6-well plate and transfected the same day with indicated siRNA. The day after, cells were washed twice, counted and seeded for clonogenic survival. For each condition, two concentrations of cells (BRCA2^−/− cells: 500 and 2000 cells; wild-type cells: 50 and 150 cells) were seeded per well of a 6-well plate. Finally, 10 to 14 days after seeding, colonies were stained with blue methylene (Sigma, 1808) for 2 h at room temperature, washed in water, air-dried overnight and scored manually.

A further data set relates to BRCA2^−/− cells. The data set is described as follows: Clonogenic survival, BRCA2^−/−. Format: cell-based, human. The note with it: Rucaparib 1 μM, 1 h in mitosis. As for the experimental part: as §2
Data set [2] deals with mitotic BRCA2^−/− cells. Nature of the data set: Metaphase spreads, chromosomal abnormalities. It counts as cell-based, human. The note with it: Rucaparib, 1 h in mitosis. As for the experimental part:
Cells were blocked in G2 with RO3306 (5 μM) for 16 h, released, then blocked in mitosis by nocodazole and subsequently treated with Rucaparib for 1 h. After shake off, mitotic cells were centrifuged and subsequently resuspended in a pre-warmed hypotonic solution (0.075 M KCl) and maintained at 37 °C for 15 min. Cells were then centrifuged, and pellets were fixed in fresh methanol and stored at −20 °C. After metaphase spreading, air-dried slides were stained with a Gurr/Giemsa/Acetone solution (Gibco, 10582013; Giemsa (KaryoMAX Giemsa stain solution, Gibco, 10092013)) for 5 min and then rinsed twice with Gurr buffer. Slides were air-dried and neo-mounted with anhydrous mounting medium (Merck, 109016). Images were acquired at 100× magnification using DeltaVision (Deconvolution) Image Restoration Microscope.

For data set [3], the system named is Polθ recruitment to mitotic DSBs. The data set is described as follows: Polθ recruitment to laser microirradiated stripes in mitosis. It counts as cell-based, human. The note with it: PARPi (Rucaparib), laser microirradiation. As for the experimental part:
Laser micro-irradiation was performed with a two-photon Ti:Saphire laser (Mai Tai DeepSee, Spectra Physics) at 800 nm with 20% power (from 2.1 W) on an inverted laser scanning confocal microscope equipped with spectral detection and a multi-photon laser (LSM880NLO/Mai Tai Laser, Zeiss, Spectra Physics), using a 40× objective NA1.3 oil DICII PL APO (420852-9870). Images were analysed using the ‘plot Z-axis profile’ function of Fiji (version 2.1.0/1.53c). X-ray irradiations were performed using the CIXD Dual Irradiator (RadeXp platform, Institut Curie).

A further data set relates to Polθ phosphorylation. Nature of the data set: Label-free MS quantification of Polθ phospho-sites in mitotic HeLa GFP-Polθ cells. The note with it: nocodazole 16 h, volasertib during last hour, IP 500 mM NaCl, five experiments. It counts as cell-based, Homo sapiens. The procedure:
For the identification of Polθ binding partners by mass spectrometry, Polθ immunoprecipitation was performed as described above in 5 mg of nuclear extract of HEK-293T NeonGreen-POLQ knock-in cells. Lysates were incubated with mNeonGreen-Trap Magnetic Agarose beads (Chromotek) for 2 h at 4 °C and beads were washed twice with 150 mM NaCl buffer, once with 300 mM NaCl and three times in 25 mM ammonium bicarbonate. Finally, beads were resuspended in 100 µl 25 mM ammonium bicarbonate and digested by adding 0.2 μg of trypsin/LysC (Promega) for 1 h at 37 °C. Samples were then loaded into custom-made C18 StageTips packed by stacking one AttractSPE disk (SPE-Disks-Bio-C18-100.47.20 Affinisep) and 2 mg beads (186004521 SepPak C18 Cartridge Waters) into a 200 µl micropipette tip for desalting. Peptides were eluted using a ratio of 40:60 MeCN:H2O + 0.1% formic acid and vacuum concentrated to dryness. Peptides were reconstituted in injection buffer (0.3% TFA) before liquid chromatography–tandem mass spectrometry (LC–MS/MS) analysis by using an RSLCnano system (Ultimate 3000, Thermo Scientific) coupled to an Orbitrap Exploris 480 mass spectrometer (Thermo Scientific) as described previously. Mass spectrometry analysis was performed on three independent experiments. NeonGreen-Trap Magnetic Agarose beads incubated in HEK native cell extracts were used as control. For Polθ phosphorylated sites identification by mass spectrometry, Hela cells expressing GFP–Polθ were blocked 16 h in nocodazole. DMSO or Volasertib was added during the last hour of nocodazole treatment. 5 mg of nuclear extract were incubated with GFP Trap Magnetic Agarose beads (Chromotek) for 2 h at 4 °C and beads were washed once with 150 mM NaCl buffer, twice with 300 mM NaCl and twice with 500 mM NaCl buffer. Finally, beads were resuspended in 100 µl 25 mM Ammonium bicarbonate and digested by adding 0.2 μg of trypsin/LysC (Promega) for 1 h at 37 °C. Samples were then desalted and peptides were reconstituted in injection buffer before LC–MS/MS analysis as described previously in the Polθ binding partners identification. Mass spectrometry analysis was performed on five independent experiments. GFP Trap Magnetic Agarose beads incubated in HeLa native cell extracts were used as controls. […] Beads were resuspended, digested and desalted, and then peptides were reconstituted in injections buffer before LC–MS/MS analysis, as described for Polθ binding partners identification and by using an Orbitrap Eclipse mass spectrometer. Mass spectrometry analysis was performed on five independent experiments. Pull-downs of streptavidin beads incubated in nuclear extract of HeLa cells were used as control.

For the next data set, the system named is Polθ foci in mitosis. The data set is described as follows: Polθ recruitment to DSBs in mitosis under PLK1 inhibition. The following applies: wild-type Polθ expressing cells, PLK1i (Volasertib, 200 nM). Format: cell-based, human. As for the experimental part: as §1, with “[…] Images were mounted in SoftWoRx and analysed using the Fiji software (1.53c). […]” for “All scale bars represent 5 μm unless stated otherwise.”

A further data set has as its system mitotic end joining. Nature of the data set: Mitotic end-joining repair assay (extrachromosomal substrate, qPCR). The following applies: PLK1i (Volasertib, 200 nM), mitotic cells, substrate 150 ng, 1.5 h. It counts as cell-based, human. From the text: To assess mitotic end-joining repair, a DNA repair substrate was designed to mimic resected DNA ends containing four microhomologies, as previously described. The repair substrate was built by ligating a PCR product (GFP sequence) to DNA oligonucleotide duplexes on both sides. The PCR product (747 bp) was amplified from a GFP sequence (PCAG vector, Addgene) using the following oligonucleotide sequences (Fwd core GFP: […], Rev core GFP: […]), digested by the BsaI-HF v2 enzyme (NEB) to reveal 4 nucleotides (nts) complementary to the DNA oligonucleotide duplexes and finally, purified (Gel and PCR cleanup kit Macherey-Nagel). In parallel, two oligonucleotide duplexes (1 and 2) with ~70 nts overhangs were made after annealing (95 °C 10 min, 25 °C 30 min) of the following oligonucleotides. Oligonucleotides for duplex 1 (17 nt dsDNA, 69 nt ssDNA): oligo 1-A, […]; oligo 1-B, […]. Oligonucleotides for duplex 2 (15 nt dsDNA, 71 nt ssDNA): oligo 2-A, […]; oligo 2-B: […]. […]
To measure DNA repair efficiency, a qPCR was performed both on the GFP sequence (to control for the DNA repair substrate transfection) as well as on potential end-joining repair products. Mitotic end-joining repair efficiency was calculated using ΔΔCt between GFP qPCR and end-joining qPCR using SYBR Green Master Mix (ThermoFisher Scientific).
Background: In qPCR the cycle at which signal appears reflects the starting amount.

For the next data set, the system named is Polθ nuclear bodies. Nature of the data set: Polθ nuclear bodies in G1 after siRNA. It counts as cell-based, human. The following applies: siRNA knockdown, G1 cells. As for the experimental part:
Transfection of siRNA oligonucleotides (Eurofins) was performed using Lipofectamine RNAiMax (ThermoFisher Scientific) following the manufacturer’s instructions.
as §1, with “All images were taken with a Z-stack of 0.4 μM on 8 μM range around focus and projected using maximum intensity projection.” left out, “All scale bars represent 5 μm unless stated otherwise.” left out

Consider `CNCc1ccc(-c2[nH]c3cc(F)cc4c3c2CCNC4=O)cc1` [Rucaparib], for which the “DSB formation in mitosis” value in the data set with mitotic BRCA2^−/− cells [1] is listed as “induced the formation of DSBs”. For the same molecule, the “clonogenic survival / cell killing” value was “sufficient to kill BRCA2^−/− but not wild-type cells” in the data set with wild-type cells and “sufficient to kill BRCA2^−/−” in the data set with BRCA2^−/− cells. Further, in the data set on mitotic BRCA2^−/− cells [2], the “chromosomal abnormalities (breaks and radials)” value was “induced the formation of DSBs and chromosomal abnormalities”. In addition, the “Polθ recruitment to mitotic DSBs” value in data set [3] is “abolished”.

Regarding `CC[C@@H]1C(=O)N(C)c2cnc(Nc3ccc(C(=O)N[C@H]4CC[C@H](N5CCN(CC6CC6)CC5)CC4)cc3OC)nc2N1C(C)C` [Volasertib], in the data set on Polθ phosphorylation, the “Ratio Nocodazole / Volacertib, phospho-site S1628.S1639” value worked out at 5.418. The “Ratio Nocodazole / Volacertib, phospho-site S1594” value in the data set with Polθ phosphorylation (adj. p 0.00104923) came to 1.901. Moreover, the “Ratio Nocodazole / Volacertib, phospho-site S1094*” value with Polθ phosphorylation (adj. p 0.0536125, * only re-extracted peptides by MBR) is 1.958. Besides, the “Ratio Nocodazole / Volacertib, phospho-site T1755” value in the data set with Polθ phosphorylation (adj. p 0.0634598) came to 3.242. Moreover, in the data set with Polθ phosphorylation (adj. p 0.115005, * only re-extracted peptides by MBR), the “Ratio Nocodazole / Volacertib, phospho-site S1436*” value is recorded as 1.887. Further, the “Ratio Nocodazole / Volacertib, phospho-site S1289” value in the data set with Polθ phosphorylation (adj. p 0.400471) came out at 3.904. Also, the “Polθ recruitment to DSBs in mitosis” value with Polθ foci in mitosis was “neither mutant was recruited to DSBs in mitosis (Fig. 3f, Extended Data Fig. 8a and Supplementary Video 4), similar to our observations in wild-type Polθ expressing cells under PLK1 inhibition”. Moreover, the “efficiency of mitotic end joining” value in the data set on mitotic end joining is on record as “greatly impaired the efficiency of mitotic end joining”.

Regarding “CAGGACAGUCUUUCCACGAdTdT (sense CAGGACAGUCUUUCCACGATT; chemistry not fully specified) [53BP1, siRNA targeting 53BP1]”, the “Polθ nuclear body formation” value in the data set with Polθ nuclear bodies was “increased Polθ nuclear body formation”.
